Experimental data reported in ChEMBL document CHEMBL6092188, “Structure-Guided Conformational Restriction Leading to High-Affinity, Selective, and Cell-Active Tetrahydroisoquinoline-Based Noncovalent Keap1-Nrf2 Inhibitors” (J Med Chem, 2024).

How the values were obtained:
[1] = Solubility of the compound in PBS buffer and 0.5% DMSO at 200 uM by LC-MS analysis; assay type: physicochemical
[2] = in vitro; conditions: male, CD-1, mouse, liver microsomes
[3] = Metabolic stability in male CD-1 mouse liver microsomes assessed as parent compound remaining measured after 30 mins in presence of NADPH regenerating system by LC-MS analysis; assay type: ADME, Microsome; conditions: read-out: Stability
[4] = Metabolic stability in human liver microsomes assessed as parent compound remaining measured after 30 mins in presence of NADPH regenerating system by LC-MS analysis; assay type: ADME, Microsome; conditions: read-out: Stability
[5] = Permeability of the compound in PBS buffer at pH 7.4 at 200 uM measured after 5 hrs by PAMPA assay; assay type: ADME; conditions: for Papp at 5 h, 200 µM: PAMPA, pH 7.4, read-out: permeability
[6] = Metabolic stability in male Sprague-Dawley rat liver microsomes assessed as parent compound remaining measured after 30 mins in presence of NADPH regenerating system by LC-MS analysis; assay type: ADME, Microsome; conditions: read-out: Stability
[7] = Metabolic stability in human liver microsomes assessed as half life measured after 1 hr in presence of NADPH regenerating system by LC-MS analysis; assay type: ADME, Microsome
[8] = in vitro; conditions: male, Sprague-Dawley, rat, liver microsomes

COc1cccc(S(=O)(=O)NCc2cccc(C(NC(=O)c3cccc4c3-c3ccccc3C4=O)C(=O)O)c2)c1 (centres undefined)
solubility [1]: soluble

COc1ccc(S(=O)(=O)NCc2cccc(C(NC(=O)c3cccc4c3-c3ccccc3C4=O)C(=O)O)c2)cc1 (centres undefined)
half-life at 1 h [2]: 3.6 min
remaining at 0.5 h [3]: < 3%

CN(C)c1cccc(S(=O)(=O)NCc2cccc([C@@H](NC(=O)c3cccc4c3-c3ccccc3C4=O)C(=O)O)c2)c1
solubility [1]: soluble

CCOc1ccc(S(=O)(=O)N2CCc3ccc(C(NC(=O)c4cccc5c4-c4cccnc4C5=O)C(=O)O)cc3C2)cc1C#N (centres undefined)
half-life at 1 h [2]: 25 min
remaining at 0.5 h [3]: 39%

Cn1c2ccccc2c2c(C(=O)NC(C(=O)O)c3ccc4c(c3)CN(S(=O)(=O)c3cccc(Br)c3)CC4)cccc21 (centres undefined)
half-life at 1 h [2]: 5.4 min
remaining at 0.5 h [3]: < 3%

Cn1c2ccccc2c2c(C(=O)NC(C(=O)O)c3ccc4c(c3)CN(S(=O)(=O)c3cccc(C#N)c3)CC4)cccc21 (centres undefined)
half-life at 1 h [2]: 15 min
remaining at 0.5 h [4]: 89%
Papp at 5 h, 200 µM [5]: 2.2 ×10⁻⁶ cm/s
remaining at 0.5 h [6]: 92%
half-life [7]: 200 min
half-life at 1 h [8]: 400 min
remaining at 0.5 h [3]: 22%

CCOc1ccc(S(=O)(=O)N2CCc3ccc(C(NC(=O)c4cccc5c4c4ccccc4n5C)C(=O)O)cc3C2)cc1C#N (centres undefined)
half-life at 1 h [2]: 8 min
remaining at 0.5 h [4]: 66%
Papp at 5 h, 200 µM [5]: 4.7 ×10⁻⁶ cm/s
remaining at 0.5 h [6]: 86%
half-life [7]: 47 min
half-life at 1 h [8]: 280 min
remaining at 0.5 h [3]: 8%

N#Cc1cc(S(=O)(=O)N2CCc3ccc(C(NC(=O)c4cccc5c4-c4ccccc4C5=O)C(=O)O)cc3C2)ccc1F (centres undefined)
half-life at 1 h [2]: 3.2 min
remaining at 0.5 h [4]: < 3%
remaining at 0.5 h [6]: 77%
half-life [7]: 4.5 min
half-life at 1 h [8]: 78 min
remaining at 0.5 h [3]: < 3%

O=C(NC(C(=O)O)c1ccc2c(c1)CN(S(=O)(=O)c1cccc(Br)c1)CC2)c1cccc2c1-c1ccccc1C2=O (centres undefined)
half-life at 1 h [2]: 3.3 min
remaining at 0.5 h [3]: 0%

Cn1c2ccccc2c2c(C(=O)NC(C(=O)O)c3ccc4c(c3)CN(S(=O)(=O)c3ccc(F)c(C#N)c3)CC4)cccc21 (centres undefined)
half-life at 1 h [2]: 13 min
remaining at 0.5 h [4]: 64%
Papp at 5 h, 200 µM [5]: 4.7 ×10⁻⁶ cm/s
remaining at 0.5 h [6]: 86%
half-life [7]: 51 min
half-life at 1 h [8]: 240 min
remaining at 0.5 h [3]: 16%

COc1ccc(S(=O)(=O)N2CCc3ccc(C(NC(=O)c4cccc5c4-c4ccccc4C5=O)C(=O)O)cc3C2)cc1 (centres undefined)
half-life at 1 h [2]: 3.8 min
permeability ([5]; pampa, pH 7.4, 5 h, 200 µM): Permeable
solubility [1]: soluble
remaining at 0.5 h [3]: < 3%

CCOc1ccc(S(=O)(=O)N2CCc3ccc(C(NC(=O)c4cccc5c4-c4ccccc4C5F)C(=O)O)cc3C2)cc1C#N (centres undefined)
half-life at 1 h [2]: 12 min
remaining at 0.5 h [3]: 19%

CCOc1ccc(S(=O)(=O)N2CCc3ccc(C(NC(=O)c4cccc5c4-c4ccccc4C5=O)C(=O)O)cc3C2)cc1C#N (centres undefined)
half-life at 1 h [2]: 3.8 min
remaining at 0.5 h [4]: < 3%
remaining at 0.5 h [6]: 78%
half-life [7]: 5.1 min
half-life at 1 h [8]: 99 min
remaining at 0.5 h [3]: 3%

N#Cc1cccc(S(=O)(=O)N2CCc3ccc(C(NC(=O)c4cccc5c4-c4ccccc4C5=O)C(=O)O)cc3C2)c1 (centres undefined)
half-life at 1 h [2]: 6.1 min
remaining at 0.5 h [4]: < 3%
remaining at 0.5 h [6]: 83%
half-life [7]: 6.1 min
half-life at 1 h [8]: 130 min
remaining at 0.5 h [3]: 7.5%

COc1ccc(S(=O)(=O)N2CCc3ccc(C(NC(=O)c4cccc5c4-c4ccccc4C5=O)C(=O)O)cc3C2)cc1C#N (centres undefined)
half-life at 1 h [2]: 4.5 min
remaining at 0.5 h [3]: 3.5%

CCOc1ccc(S(=O)(=O)N2CCc3ccc(C(NC(=O)c4cccc5c4-c4ccccc4C5)C(=O)O)cc3C2)cc1C#N (centres undefined)
half-life at 1 h [2]: 4.7 min
remaining at 0.5 h [3]: < 3%
